According to ChEMBL document CHEMBL1151525, “Thromboxane receptor antagonism combined with thromboxane synthase inhibition. 7. pyridinylalkyl-substituted arylsulfonylamino arylalkanoic acids” (Bioorg Med Chem Lett, 1992):

Tests used:
Homo sapiens [1] = organism: Homo sapiens; experiment: Inhibitory concentration against U 46619 induced aggregation of human washed platelets(WP); type: functional
Thromboxane-A synthase = biological target: T1, Thromboxane-A synthase (Homo sapiens, UniProt P24557); experiment: Inhibitory concentration against thromboxane synthase enzyme from human microsomal platelet preparation
T1 sequence (P24557 whole entry): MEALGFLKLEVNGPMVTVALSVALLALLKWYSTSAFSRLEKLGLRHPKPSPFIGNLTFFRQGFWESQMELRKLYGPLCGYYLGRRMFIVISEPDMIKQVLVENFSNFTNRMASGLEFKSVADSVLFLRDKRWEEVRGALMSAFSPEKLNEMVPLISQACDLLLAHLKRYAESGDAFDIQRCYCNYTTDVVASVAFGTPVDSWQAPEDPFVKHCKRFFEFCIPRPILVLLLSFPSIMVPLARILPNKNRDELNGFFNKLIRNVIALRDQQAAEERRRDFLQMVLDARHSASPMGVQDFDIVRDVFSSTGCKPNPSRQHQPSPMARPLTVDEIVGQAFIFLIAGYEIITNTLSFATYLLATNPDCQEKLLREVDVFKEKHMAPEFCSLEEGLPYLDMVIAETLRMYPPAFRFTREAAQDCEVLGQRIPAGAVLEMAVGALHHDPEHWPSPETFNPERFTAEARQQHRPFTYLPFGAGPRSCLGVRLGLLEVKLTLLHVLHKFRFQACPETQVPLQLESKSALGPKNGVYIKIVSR

Homo sapiens [2] = organism: Homo sapiens; experiment: Inhibitory concentration against U 46619 induced aggregation of human platelet rich plasma(PRP); type: functional
Cavia porcellus = experiment: Ratio of EC50 for drug treated animals over that of control was determined for U-46,619 induced ex-vivo platelet aggregation 1 hr post dosing of 10 mg/kg orally; type: functional; conditions: route oral

Structure (SMILES): O=C(O)CCc1ccc(CCCNS(=O)(=O)c2ccc(Cl)cc2)cc1CCc1cccnc1
- IC50 (Homo sapiens [1]): 230 nM
- IC50 (Thromboxane-A synthase): 26 nM

Structure (SMILES): O=C(O)Cc1cc(CCCNS(=O)(=O)c2ccc(Cl)cc2)cc(CCc2cccnc2)c1
- IC50 (Homo sapiens [1]): 1130 nM
- IC50 (Thromboxane-A synthase): 7 nM
- IC50 (Homo sapiens [2]): 10700 nM

Structure (SMILES): O=C(O)CCc1cc(CCNS(=O)(=O)c2ccc(Cl)cc2)ccc1CCc1cccnc1
- IC50 (Homo sapiens [1]): 15 nM
- Concentration ratio (Cavia porcellus): 52
- IC50 (Thromboxane-A synthase): 15 nM
- IC50 (Homo sapiens [2]): 300 nM

Structure (SMILES): O=C(O)CCc1ccc(CNS(=O)(=O)c2ccc(Cl)cc2)c(CCc2cccnc2)c1
- IC50 (Homo sapiens [1]): 380 nM
- IC50 (Thromboxane-A synthase): 43 nM

Structure (SMILES): COC(=O)CCc1cc(CCNS(=O)(=O)c2ccc(Cl)cc2)cc(CCc2cccnc2)c1
- IC50 (Homo sapiens [1]): 3 nM
- Concentration ratio (Cavia porcellus): >100
- IC50 (Thromboxane-A synthase): 9 nM
- IC50 (Homo sapiens [2]): 170 nM
